In US20250326769A1, “HETEROAROMATIC MACROCYCLIC ETHER CHEMOTHERAPEUTIC AGENTS” (Nuvalent, Inc., priority 2022, published 2025):
Read-outs that look alike come from different tables or passages of the source.

Assays:
[1] = molecular target: ALK I1171N/D1203N (Homo sapiens (Human), UniProt Q9UM73, D1203N/I1171N); test: Biochemical kinase assay, ALK I1171N/D1203N; details: apparent inhibitory constant, kinase domain, Morrison equation; read-out: ALK-I1171N-D1203N Ki^app
Procedure: (§1) First, 250 nL of compound dissolved in DMSO (100-fold of the desired concentration) was dispensed into a 384-well plate. A 12.5 μL substrate solution containing ATP (2 mM) and fluorogenic phosphorylation substrate AQT0101 ([…] for ALK and ROS, AssayQuant) or AQT0104 (26 μM for TRKB, AssayQuant) in buffer (50 mM HEPES pH 7.5, […], 0.5 mM EGTA, 10 mM MgCl2) was added and mixed thoroughly. Then, a 12.5 μL kinase solution containing ALK (1.5 nM, Carna, 08-518), ALK I1171N/D1203N (4 nM, SignalChem, custom-made), ROS1 (0.6 nM, Carma, 08-163), ROS1-G2032R (0.5 nM, SignalChem, R14-121BG), or TRKB-wt (1.5 nM, SignalChem, N17-11G) kinase domains in buffer ([…] pH 7.5, 0.01% Brij-[…], 0.4 mg/mL BSA, 0.5 mM EGTA, and 10 mM MgCl2) was added and mixed thoroughly. The plate was sealed and read by SpectraMax Paradigm at λ=485 nm every 2 minutes for 120 minutes at 30° C. Initial rates of reaction (v) were calculated from the change in fluorescence intensity over time during the initial, linear portion of the reaction. Finally, apparent inhibitory constants (Ki^app) were determined from regression of v and I (inhibitor concentration) to Morrison Equation (E=enzyme concentration): […]
(§2) Compound potency can be interpreted by binning Ki^app values against the targets: bin A for high potency, Ki^app<50 nM; bin B for medium potency, 50 nM≤Ki^app<500 nM; and bin C for low potency, Ki^app≥500 nM. […] “nd” means not determined.

[2] = molecular target: TRKB-wt (Homo sapiens (Human), UniProt Q16620); test: Biochemical kinase assay, TRKB-wt; details: apparent inhibitory constant, kinase domain, Morrison equation; read-out: TRKB-wt Ki^app
Procedure: as §1, §2

[3] = molecular target: Ba/F3 ETV6-TRKB (Homo sapiens, UniProt Q16620); test: Ba/F3 cell proliferation assay, ETV6-TRKB; type: cell-based
Procedure, shortened: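 Ba/F3 cells retrovirally transduced with ETV6-TRKB and selected for IL-3-independent growth with puromycin were treated with 3-fold compound dilutions for 72 h. Viability read by CellTiter-Glo luminescence; IC50 from percent inhibition by four-parameter logistic fit.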

[4] = molecular target: Ba/F3 EML4-ALK v1 I1171N (Homo sapiens (Human), UniProt Q9HC35+Q9UM73, I1171N); test: Ba/F3 cell proliferation assay, EML4-ALK v1 I1171N; type: cell-based; details: for IC50: Ba/F3 stable cells, 72 hours, CellTiter-Glo; for ETV6-TRKB / EML4-ALK v1 I1171N: TRKB selectivity, ratio of Ba/F3 IC50 values
Procedure, shortened: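 Ba/F3 cells stably transformed with retroviral EML4-ALK v1 I1171N, selected by IL-3 withdrawal and puromycin, grown IL-3-free. Compounds added as 3-fold dilution series, 72 h incubation; viability by CellTiter-Glo luminescence. IC50 from percent inhibition by four-parameter logistic fit, binned A/B/C.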

[5] = molecular target: Ba/F3 EML4-ALK v1 I1171N/D1203N (Homo sapiens (Human), UniProt Q9HC35+Q9UM73, D1203N/I1171N); test: Ba/F3 cell proliferation assay, EML4-ALK v1 I1171N/D1203N; type: cell-based; details: for IC50: Ba/F3 stable cells, 72 hours, CellTiter-Glo
Procedure, shortened: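 Ba/F3 cells made IL-3-independent by retroviral EML4-ALK v1 I1171N/D1203N and selected with puromycin, then treated with 3-fold compound dilutions for 72 h. Viability by CellTiter-Glo luminescence; IC50 from four-parameter logistic fit.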

[6] = Ba/F3 stable cells, 72 hours, CellTiter-Glo; read-out: ETV6-TRKB IC50
[7] = TRKB selectivity, ratio of Ba/F3 IC50 values

Sequence of Ba/F3 EML4-ALK v1 I1171N (Q9UM73 other isoform, or with tags, fused parts or gaps I1171N): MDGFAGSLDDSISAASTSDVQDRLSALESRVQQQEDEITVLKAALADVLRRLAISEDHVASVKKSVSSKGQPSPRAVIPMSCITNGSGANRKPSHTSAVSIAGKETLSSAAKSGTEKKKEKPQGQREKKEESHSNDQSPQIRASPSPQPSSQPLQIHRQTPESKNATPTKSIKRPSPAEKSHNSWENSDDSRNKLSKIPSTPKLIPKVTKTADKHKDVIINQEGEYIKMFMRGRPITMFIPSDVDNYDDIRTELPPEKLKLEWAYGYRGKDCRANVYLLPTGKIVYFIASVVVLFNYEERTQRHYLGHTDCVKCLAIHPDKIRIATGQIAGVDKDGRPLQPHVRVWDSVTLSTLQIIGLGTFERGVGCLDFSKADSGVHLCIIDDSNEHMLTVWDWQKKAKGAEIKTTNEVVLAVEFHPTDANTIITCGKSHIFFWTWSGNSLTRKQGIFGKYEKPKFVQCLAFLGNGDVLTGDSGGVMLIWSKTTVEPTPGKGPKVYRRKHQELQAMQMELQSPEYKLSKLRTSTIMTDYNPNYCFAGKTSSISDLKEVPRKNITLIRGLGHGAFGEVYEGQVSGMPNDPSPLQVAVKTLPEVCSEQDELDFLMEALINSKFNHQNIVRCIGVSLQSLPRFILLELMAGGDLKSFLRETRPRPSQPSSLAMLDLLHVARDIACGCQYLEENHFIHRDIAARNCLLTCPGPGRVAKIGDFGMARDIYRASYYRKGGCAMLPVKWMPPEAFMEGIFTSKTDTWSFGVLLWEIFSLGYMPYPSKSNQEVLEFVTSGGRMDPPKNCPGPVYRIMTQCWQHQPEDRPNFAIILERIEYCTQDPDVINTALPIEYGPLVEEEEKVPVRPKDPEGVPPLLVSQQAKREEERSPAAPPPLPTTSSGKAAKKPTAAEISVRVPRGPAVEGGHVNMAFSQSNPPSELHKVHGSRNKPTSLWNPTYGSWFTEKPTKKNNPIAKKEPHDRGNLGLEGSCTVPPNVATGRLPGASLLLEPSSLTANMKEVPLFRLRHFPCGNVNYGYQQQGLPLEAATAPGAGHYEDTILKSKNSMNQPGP
Sequence of TRKB-wt (Q16620 538-807): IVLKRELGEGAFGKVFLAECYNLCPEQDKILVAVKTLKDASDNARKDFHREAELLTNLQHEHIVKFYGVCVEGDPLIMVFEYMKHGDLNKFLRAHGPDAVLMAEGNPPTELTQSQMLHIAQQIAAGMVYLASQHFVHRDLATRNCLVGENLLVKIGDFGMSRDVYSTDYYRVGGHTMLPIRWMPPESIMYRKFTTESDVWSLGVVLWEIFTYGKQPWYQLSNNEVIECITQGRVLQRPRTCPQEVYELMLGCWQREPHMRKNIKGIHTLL
Sequence of Ba/F3 EML4-ALK v1 I1171N/D1203N (Q9UM73 other isoform, or with tags, fused parts or gaps I1171N/D1203N): as the sequence (Q9UM73 other isoform, or with tags, fused parts or gaps I1171N) above, with D642N counted along it
Sequence of Ba/F3 ETV6-TRKB (Q16620 32-822 limits assumed, change not shown): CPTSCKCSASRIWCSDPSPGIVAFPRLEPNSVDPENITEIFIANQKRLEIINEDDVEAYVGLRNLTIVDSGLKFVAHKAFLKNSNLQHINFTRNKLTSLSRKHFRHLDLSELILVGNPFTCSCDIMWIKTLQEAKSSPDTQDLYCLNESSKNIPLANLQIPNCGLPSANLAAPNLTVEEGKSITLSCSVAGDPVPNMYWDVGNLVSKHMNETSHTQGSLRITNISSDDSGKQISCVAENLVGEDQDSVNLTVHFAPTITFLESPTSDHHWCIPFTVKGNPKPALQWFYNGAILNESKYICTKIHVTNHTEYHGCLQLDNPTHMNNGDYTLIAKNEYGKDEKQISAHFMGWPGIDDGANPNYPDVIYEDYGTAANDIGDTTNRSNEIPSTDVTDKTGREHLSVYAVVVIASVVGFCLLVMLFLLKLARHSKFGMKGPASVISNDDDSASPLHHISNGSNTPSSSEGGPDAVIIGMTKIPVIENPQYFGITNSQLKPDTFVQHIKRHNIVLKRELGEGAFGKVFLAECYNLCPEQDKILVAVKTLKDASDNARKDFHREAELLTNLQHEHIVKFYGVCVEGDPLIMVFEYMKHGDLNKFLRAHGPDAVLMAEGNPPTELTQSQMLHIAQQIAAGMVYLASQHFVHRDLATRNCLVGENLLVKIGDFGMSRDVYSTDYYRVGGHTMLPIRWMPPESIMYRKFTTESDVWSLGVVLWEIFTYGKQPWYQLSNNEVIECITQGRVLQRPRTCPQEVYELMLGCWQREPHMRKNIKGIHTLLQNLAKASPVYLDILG
Sequence of ALK I1171N/D1203N (Q9UM73 1116-1392 I1171N/D1203N): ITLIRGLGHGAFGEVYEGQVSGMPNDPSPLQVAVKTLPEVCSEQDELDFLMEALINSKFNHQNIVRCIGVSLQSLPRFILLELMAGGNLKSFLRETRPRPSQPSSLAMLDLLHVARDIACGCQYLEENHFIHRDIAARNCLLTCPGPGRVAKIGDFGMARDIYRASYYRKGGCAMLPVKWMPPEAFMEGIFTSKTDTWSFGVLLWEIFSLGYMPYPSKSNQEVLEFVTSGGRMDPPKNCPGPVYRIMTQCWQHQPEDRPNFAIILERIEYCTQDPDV

SMILES	Ki [1] [nM]	Ki [2] [nM]	IC50 [3, 6] [nM]	IC50 [4] [nM]	ETV6-TRKB / EML4-ALK v1 I1171N [4]	IC50 [5] [nM]	ETV6-TRKB / EML4-ALK v1 I1171N/D1203N [5, 7]	IC50 ([3]; read-out: ETV6-TRKB IC50; Ba/F3 stable cells, 72 hours, CellTiter-Glo) [nM]	Selectivity for Ba/F3 EML4-ALK v1 I1171N-D1203N IC50 over Ba/F3 ETV6-TRKB IC50 ([5]; TRKB selectivity, ratio of Ba/F3 IC50 values, Table 6 bins)
Cc1ocnc1-c1nn(CC2CC2)c2c1Cc1cccnc1-c1ccc(F)cc1[C@@H](C)Oc1cc-2cnc1N [Example 3, (20R)-3-(cyclopropylmethyl)-17-fluoro-20-methyl-5-(5-methyl-1,3-oxazol-4-yl)-21-oxa-3,4,12,24-tetraazapentacyclo[20.3.1.0^2,^6.0^8,^13.0^14,^19]hexacosa-1(25),2(6),4,8(13),9,11,14,16,18,22(26),23-undecaen-23-amine]	< 50	50 to 500	> 500	0.1 to 50	A (bin A for very high selectivity, ratio≥30-fold)	0.1 to 50	B (bin B for high selectivity, ratio≥10-fold but<30)		
CCn1nc(C(N)=O)c2c1-c1cnc(N)c(c1)O[C@H](C)c1cc(F)ccc1-c1nn(C)cc1C2 [Example 5, (R)-22-amino-3-ethyl-16-fluoro-10-methyl-19-methyl-20-oxa-3,4,10,11,23-pentaazapentacyclo[19.3.1.0^2,6.0^8,12.0^13,18]pentacosa-1(24),2(6),4,8,11.13,15,17,21(25),22-decaene-5-carboxamide]	< 50	< 50	50 to 500	0.1 to 50	C (bin C for moderate selectivity, ratio≥1 but<10)	50 to 500	D (bin D for low selectivity, ratio<1)		
C[C@H]1Oc2cc(cnc2N)-c2c(c(C(=O)N(C)C)nn2CC2CC2)Cc2cccnc2-c2ccc(F)cc21 [Example 10, N,N-dimethyl-(R)-23-amino-3-(cyclopropylmethyl)-17-fluoro-20-methyl-21-oxa-3,4,12,24-tetraazapentacyclo[20.3.1.0^2,^6.0^8,^13.0^14,^19]hexacosa-1(25),2(6),4,8(13),9,11,14,16,18,22(26),23-undecaene-5-carboxamide]	< 50	50 to 500	> 500	0.1 to 50	A (bin A for very high selectivity, ratio≥30-fold)	0.1 to 50	A (bin A for very high selectivity, ratio≥30-fold)		
C[C@H]1Oc2cc(cnc2N)-c2c(CC3CC3)nn(C(=O)N(C)C)c2Cc2cccnc2-c2ccc(F)cc21 [Example 20, (R)-5-(N,N-dimethylcarbamoyl)-3-(cyclopropylmethyl)-17-fluoro-20-methyl-21-oxa-4,5,12,24-tetraazapentacyclo[20.3.1.0^2,^6.0^8,^13.0^14,^19]hexacosa-1(25),2(6),3,8(13),9,11,14,16,18,22(26),23-undecaen-23-ylamine]	< 50	50 to 500		0.1 to 50	A (bin A for very high selectivity, ratio≥30-fold)	0.1 to 50	A (bin A for very high selectivity, ratio≥30-fold)	50 to 500	
C[C@H]1Oc2cc(cnc2N)-c2c(c(C(=O)N(C)C)nn2CC2CC2)Oc2cccnc2-c2ccc(F)cc21 [Example 39, N,N-dimethyl-(R)-23-amino-3-(cyclopropylmethyl)-17-fluoro-20-methyl-7,21-dioxa-3,4,12,24-tetraazapentacyclo[20.3.1.0^2,6.0^8,13.0^14,19]hexacosa-1(25),2(6),4,8(13),9,11,14,16,18,22(26),23-undecaene-5-carboxamide]	< 50	≥ 500	> 500			0.1 to 50	A (bin A for very high selectivity, ratio≥30-fold)		
C[C@H]1Oc2cc(cnc2N)-c2c(c(C(=O)N(C)C3CC3)nn2CC2CC2)Cc2cn(C)nc2-c2ccc(F)cc21 [Example 40, N-cyclopropyl-N-methyl-(R)-22-amino-3-(cyclopropylmethyl)-16-fluoro-10-methyl-19-methyl-20-oxa-3,4,10,11,23-pontaazapentacyclo[19.3.1.0^2,^6.0^8,^12.0^13,^18]pentacosa-1(24),2(6),4,8,11,13,15,17,21(25),22-decaene-5-carboxamide]	< 50	≥ 500	> 500			50 to 500	A (bin A for very high selectivity, ratio≥30-fold)		
C[C@H]1Oc2cc(cnc2N)-c2c(CC3CC3)nc(C(=O)N(C)C)n2Cc2cn(C)nc2-c2ccc(F)cc21 [Example 41, N,N-dimethyl-(R)-22-amino-3-(cyclopropylmethyl)-16-fluoro-10-methyl-19-methyl-20-oxa-4,6,10,11,23-pentaazapentacyclo[19.3.1.0^2,6.0^8,12.0^13,18]pentacosa-1(24),2,4,8,11,13,15,17,21(25),22-decaene-5-carboxamide]	< 50	≥ 500	> 500			0.1 to 50	A (bin A for very high selectivity, ratio≥30-fold)		
Cc1cc2n(n1)-c1ccc(F)cc1[C@@H](C)Oc1cc(cnc1N)-c1c(c(C(=O)N(C)C)nn1CC1CC1)C2 [Example 42, N,N-dimethyl-(R)-22-amino-3-(cyclopropylmethyl)-16-fluoro-10,19-dimethyl-20-oxa-3,4,11,12,23-pentaazapentacyclo[19.3.1.0^2,^6.0^8,^12.0^13,^18]pentacosa-1(24),2(6),4,8,10,13,15,17,21(25),22-decaene-5-carboxamide]	< 50	≥ 500	> 500			50 to 500	A (bin A for very high selectivity, ratio≥30-fold)		
CCn1nc(C(=O)N(C)C)c2c1-c1cnc(N)c(c1)O[C@H](C)c1cc(F)ccc1-c1ncccc1C2 [Example 43, N,N-dimethyl-(R)-23-amino-3-ethyl-17-fluoro-20-methyl-21-oxa-3,4,12,24-tetraazapentacyclo[20.3.1.0^2,^6.0^8,^13.0^14,^19]hexacosa-1(25),2(6),4,8(13),9,11,14,16,18,22(26),23-undecaene-5-carboxamide]	< 50	< 50	0.1 to 50			0.1 to 50	B (bin B for high selectivity, ratio≥10-fold but<30)		BB (bin BB for the selectivity with the ratio≥10-fold but<30)
CCOC(=O)c1nn(CC2CC2)c2c1Oc1cccnc1-c1ccc(F)cc1[C@@H](C)Oc1cc-2cnc1N [Example 55, ethyl (20R)-23-amino-3-(cyclopropylmethyl)-17-fluoro-20-methyl-7,21-dioxa-3,4,12,24-tetraazapentacyclo[20.3.1.0^2,^6.0^8,^13.0^14,^19]hexacosa-1(25),2(6),4,8(13),9,11,14,16,18,22(26),23-undecaene-5-carboxylate]	< 50	≥ 500	> 500			50 to 500	B (bin B for high selectivity, ratio≥10-fold but<30)		
CSc1nn(CC2CC2)c2c1Cc1cn(C)nc1-c1ccc(F)cc1[C@@H](C)Oc1cc-2cnc1N [Example 56, (R)-3-(cyclopropylmethyl)-16-fluoro-10-methyl-19-methyl-5-(methylthio)-20-oxa-3,4,10,11,23-pentaazapentacyclo[19.3.1.0^2,^6.0^8,^12.0^13,^18]pentacosa-1(25),2(6),4,8,11,13,15,17,21,23-decaen-22-ylamine]	50 to 500	≥ 500	> 500			50 to 500	C (bin C for moderate selectivity, ratio≥1 but<10)		
